Laboratory results reported in EPA's ToxValDB 9.5 (doi:10.2903/j.efsa.2014.3237).
≈ marks a conversion by molar mass, not a printed value.

What was measured:
Typhlodromus pyri = assay: LR50; higher = less toxic; details: acute; duration: 7 days; mortality
Aphidius rhopalosiphi = assay: LR50; higher = less toxic; details: acute; duration: 48 hours; mortality
Daphnia magna = details: chronic/long-term; duration: 21 days; reproduction
Colinus virginianus = details: for LD50: acute, oral
Oryctolagus sp. = details: reproduction developmental; body weight
Tagia sp. = details: mortality
Cyprinus carpio = details: acute; duration: 96 hours; mortality
Mus musculus = details: chronic; duration: 18 months; histopathology: neoplastic
Pimephales promelas = details: chronic/long-term; duration: 28 days; growth
Bibionidae = details: chronic/long-term; duration: 28 days; development
Apis mellifera = details: acute; duration: 48 hours; oral; unspecified; mortality

## Cc1c(Br)c2ccc(F)cc2n1S(=O)(=O)c1ncn(S(=O)(=O)N(C)C)n1 [Amisulbrom]
Typhlodromus pyri
  LR50: > 1000 g/ha
Aphidius rhopalosiphi
  LR50: > 1000 g/ha
Daphnia magna
  NOEC: 0.0197 mg/L
Colinus virginianus
  LD50: > 2000 mg/kg-day
Colinus virginianus; diet
  LD50: > 1080 mg/kg-day
Colinus virginianus; reproduction developmental
  NOEC: 34.2 mg/kg-day
Oryctolagus sp.
  NOAEL: 30 mg/kg-day
Tagia sp.; acute, duration: 14 days
  LC50: > 1000 mg/kg
Tagia sp.; chronic/long-term, duration: 28 days
  NOEC: 93.7 mg/kg
Cyprinus carpio
  LC50: 0.0229 µg/mL (≈ 0.0491 µM)
Rattus norvegicus; acute, oral
  LD50: > 5000 mg/kg-day
Rattus norvegicus; chronic, duration: 2 years, histopathology: neoplastic
  NOAEL: 11.1 mg/kg-day
Rattus norvegicus; reproduction developmental, reproduction
  NOAEL: 48.5 mg/kg-day
Mus musculus
  NOAEL: 11.6 mg/kg-day
Pimephales promelas
  NOEC: 0.037 mg/L
Bibionidae
  NOEC: 0.111 mg/L
Apis mellifera
  LD50: > 100 µg/piece
